From patent EP0877061A1, “TRIPHENYLBORANE-ROSIN AMINE ADDUCT AND USE OF THE SAME” (Yoshitomi Fine Chemicals, Ltd., priority 1996, dated 1997)

System: hydrozoas
Test: Experimental Example 1: effect of antifouling agent for a fishnet, nets immersed in the sea off Konbumori in Hokkaido
Assay type: in vivo
Conditions: conclusion from Table 3
Excerpt: The antifouling agents for […] shown in Examples 3-10 and Comparative Examples 1 and 2 were respectively applied to Tetoron unknotted nets (1000/26, 3 sun mesh) by immersion and air-dried. The nets were retained at about 15 meters underwater in the sea off Konbumori in Hokkaido for 4 months from August 1995. The adhesion organisms were mostly hydrozoas. As Comparative Example 3, the evaluation results without a treatment with an antifouling agent for a […] shown. • Evaluation A: Area of fouling of […], 0%, no adhesion organisms. • Evaluation B: Area of fouling of […], 0-10%, small amount of adhesion organisms to the extent practically acceptable. • Evaluation C: Area of fouling of […], 10-50%, great amount of adhesion organisms, unpractical as a […]. • Evaluation D: Area of fouling of […], 50% or more, markedly greater amount of adhesion organisms.

Question: Which “antifouling effect against coelenterates such as hydrozoas and obelia (in words)” value does the source give for “triphenylborane-dehydroabiethylamine adduct [Example 1]” here?
Answer: extremely strong, long-lasting and practical antifouling effect
